# Test results: US20240109903A1, “SUBSTITUTED HETEROCYCLES FOR TREATING CANCER” (Northwestern University, priority 2022, published 2024)
# pIC50: −log10 of the molar value. Where two headings read alike, the source gives them in different places.
# Legend:
# Assay type in all cases: cell-based
# SK-MEL-5 = assay: NCI 60 five-dose screen SK-MEL-5; conditions: Homo sapiens
# NCI-H23 = assay: NCI 60 five-dose screen NCI-H23; conditions: Homo sapiens
# SW-620 = assay: NCI 60 five-dose screen SW-620; conditions: Homo sapiens
# MOLT-4 = assay: NCI 60 five-dose screen MOLT-4; conditions: Homo sapiens
# DU-145 = assay: NCI 60 five-dose screen DU-145; conditions: Homo sapiens
# RPMI-8226 = assay: NCI 60 five-dose screen RPMI-8226; conditions: Homo sapiens
# LOX IMVI = assay: NCI 60 five-dose screen LOX IMVI; conditions: Homo sapiens
# MALME-3M = assay: NCI 60 five-dose screen MALME-3M; conditions: Homo sapiens, Malme-3M
# [1] = tested on: MV-4-11 acute myeloid leukemia cells; assay: CellTiter-Glo 2.0 cell viability, MV-4-11; conditions: Homo sapiens
# Procedure, shortened: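 MV4-11 cells plated at 3,000 cells/well on pre-dispensed compounds and incubated 3 days at 37 °C, 5% CO2. Viability read as ATP-dependent luminescence with CellTiter-Glo 2.0 after 20 min at ambient temperature, followed by regression analysis.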
# RXF 393 = assay: NCI 60 five-dose screen RXF 393; conditions: Homo sapiens
# SK-MEL-28 = assay: NCI 60 five-dose screen SK-MEL-28; conditions: Homo sapiens
# SK-OV-3 = assay: NCI 60 five-dose screen SK-OV-3; conditions: Homo sapiens
# BT-549 = assay: NCI 60 five-dose screen BT-549; conditions: Homo sapiens
# MDA-MB-468 = assay: NCI 60 five-dose screen MDA-MB-468; conditions: Homo sapiens
# MDA-MB-231/ATCC = assay: NCI 60 five-dose screen MDA-MB-231/ATCC; conditions: Homo sapiens
# PC-3 = assay: NCI 60 five-dose screen PC-3; conditions: Homo sapiens
# SNB-19 = assay: NCI 60 five-dose screen SNB-19; conditions: Homo sapiens
# UO-31 = assay: NCI 60 five-dose screen UO-31; conditions: Homo sapiens
# K-562 = assay: NCI 60 five-dose screen K-562; conditions: Homo sapiens
# OVCAR-3 = assay: NCI 60 five-dose screen OVCAR-3; conditions: Homo sapiens
# EKVX = assay: NCI 60 five-dose screen EKVX; conditions: Homo sapiens
# 786-0 = assay: NCI 60 five-dose screen 786-0; conditions: Homo sapiens
# NCI-H226 = assay: NCI 60 five-dose screen NCI-H226; conditions: Homo sapiens
# MDA-MB-435 = assay: NCI 60 five-dose screen MDA-MB-435; conditions: Homo sapiens
# TK-10 = assay: NCI 60 five-dose screen TK-10; conditions: Homo sapiens
# [2] = read-out: LC50 (the source's name) (converted)
# [3] = read-out: LC50 (the source's name)
compound,measurement,setting,value
Fc1ccc(N2CC(Cn3c(C(F)(F)F)cc4c(Cl)ncnc43)C2)c(F)c1 [NUCC-0226695],GI50,SK-MEL-5,11 µM
same,pIC50,SK-MEL-5,4.74
same,IC (TGI),SK-MEL-5,22.9 µM
same,CC50,SK-MEL-5; [2],47.9 µM
same,GI50,NCI-H23,2630 nM
same,pIC50,NCI-H23,5.31
same,IC (TGI),NCI-H23,8.32 µM
same,CC50,NCI-H23; [2],30.9 µM
same,GI50,SW-620,1910 nM
same,pIC50,SW-620,5.50
same,IC (TGI),SW-620,3.8 µM
same,CC50,SW-620; [2],7.76 µM
same,GI50,MOLT-4,3.09 µM
same,pIC50,MOLT-4,5.34
same,IC (TGI),MOLT-4,8.91 µM
same,CC50,MOLT-4; [3],≥ 100 µM
same,GI50,DU-145,12.6 µM
same,pIC50,DU-145,4.66
same,IC (TGI),DU-145,25.7 µM
same,CC50,DU-145; [2],52.5 µM
same,GI50,RPMI-8226,23.4 µM
same,pIC50,RPMI-8226,4.43
same,IC (TGI),RPMI-8226,64.6 µM
same,CC50,RPMI-8226; [3],≥ 100 µM
same,GI50,LOX IMVI,1620 nM
same,pIC50,LOX IMVI,5.55
same,IC (TGI),LOX IMVI,3.02 µM
same,CC50,LOX IMVI; [2],5.5 µM
same,GI50,MALME-3M,12.6 µM
same,pIC50,MALME-3M,4.59
same,IC (TGI),MALME-3M,25.1 µM
same,CC50,MALME-3M; [2],50.1 µM
same,IC50,"[1]; MV4-11, 72 h, MV-4-11 cells, 3 days, CellTiter-Glo 2.0, read-out: IC50 (uM) [Cell Type: MV-4-11]",0.739 µM
same,pIC50,"[1]; MV4-11, bound stated in text, read-out: IC50 against MV-4-11 acute myeloid leukemia cells",> 5.70
same,GI50,RXF 393,2090 nM
same,pIC50,RXF 393,5.27
same,IC (TGI),RXF 393,5.01 µM
same,CC50,RXF 393; [2],15.5 µM
same,GI50,SK-MEL-28,2090 nM
same,pIC50,SK-MEL-28,5.44
same,IC (TGI),SK-MEL-28,4.9 µM
same,CC50,SK-MEL-28; [2],16.6 µM
same,GI50,SK-OV-3,14.5 µM
same,pIC50,SK-OV-3,4.54
same,IC (TGI),SK-OV-3,29.5 µM
same,CC50,SK-OV-3; [2],60.3 µM
same,GI50,BT-549,10.7 µM
same,pIC50,BT-549,4.63
same,IC (TGI),BT-549,22.9 µM
same,CC50,BT-549; [2],49 µM
same,GI50,MDA-MB-468,1620 nM
same,pIC50,MDA-MB-468,5.47
same,IC (TGI),MDA-MB-468,3.24 µM
same,CC50,MDA-MB-468; [2],6.31 µM
same,GI50,MDA-MB-231/ATCC,1620 nM
same,pIC50,MDA-MB-231/ATCC,5.53
same,IC (TGI),MDA-MB-231/ATCC,3.09 µM
same,CC50,MDA-MB-231/ATCC; [2],5.89 µM
same,GI50,PC-3,3.09 µM
same,pIC50,PC-3,5.37
same,IC (TGI),PC-3,11 µM
same,CC50,PC-3; [2],58.9 µM
same,GI50,SNB-19,15.1 µM
same,pIC50,SNB-19,4.56
same,IC (TGI),SNB-19,28.8 µM
same,CC50,SNB-19; [2],55 µM
same,GI50,UO-31,2690 nM
same,pIC50,UO-31,5.24
same,IC (TGI),UO-31,10.7 µM
same,CC50,UO-31; [2],33.1 µM
same,GI50,K-562; K562,2340 nM
same,pIC50,K-562; K562,5.51
same,IC (TGI),K-562; K562,7.08 µM
same,CC50,"K-562; K562, read-out: LC50 (the source's name)",≥ 100 µM
same,GI50,OVCAR-3,2570 nM
same,pIC50,OVCAR-3,5.31
same,IC (TGI),OVCAR-3,6.46 µM
same,CC50,OVCAR-3; [2],22.9 µM
same,GI50,EKVX,6.61 µM
same,pIC50,EKVX,4.78
same,IC (TGI),EKVX,20 µM
same,CC50,EKVX; [2],46.8 µM
same,GI50,786-0,14.8 µM
same,pIC50,786-0,4.58
same,IC (TGI),786-0,28.8 µM
same,CC50,786-0; [2],57.5 µM
same,GI50,NCI-H226,14.1 µM
same,pIC50,NCI-H226,4.47
same,IC (TGI),NCI-H226,30.9 µM
same,CC50,NCI-H226; [2],69.2 µM
same,GI50,MDA-MB-435,4.9 µM
same,pIC50,MDA-MB-435,5.12
same,IC (TGI),MDA-MB-435,17.8 µM
same,CC50,MDA-MB-435; [2],44.7 µM
same,GI50,TK-10,19.1 µM
same,pIC50,TK-10,4.37
same,IC (TGI),TK-10,51.3 µM
same,CC50,TK-10; [2],≥ 100 µM
